Measurements: US8895035B2, “Alkoxyimino derivative and pest control agent” (Kumiai Chemical Industry Co., Ltd, priority 2010, dated 2014)

What was measured:
Type in all cases: in vivo
[1] = system: Aphis gossipii Glover (cotton aphid, melon aphid); assay: Insecticidal action test for Aphis gossipii Glover (drench); details: soil, 72 h, 500 ppm active ingredient, 5 ml drenched to foot of cucumber seedlings with hatchlings, 25° C., after 3 days, read-out: insect mortality
Protocol: A wettable powder prepared based on Formulation Example 2 was diluted with water so that the concentration of active ingredient became 500 ppm. 5 ml of the resulting diluted formulation was drenched to the […] foot of cucumber seedlings on which the hatchlings of Aphis gossipii Glover were parasitic. The resulting cucumber seedlings were placed in a thermostat of 25° C. After 3 days, the number of living insects was calculated and the mortality of insect was calculated using the calculation formula of Mathematical Expression 1.

[2] = system: Aphis gossipii Glover (cotton aphid, melon aphid); assay: Insecticidal action test for Aphis gossipii Glover (seedling immersion); details: 72 h, 500 ppm active ingredient, cucumber seedlings with hatchlings immersed, 25° C., after 3 days, read-out: insect mortality
Protocol: A wettable powder prepared based on Formulation Example 2 was diluted with water so that the concentration of active ingredient became 500 ppm. In the resulting liquid were immersed cucumber seedlings on which the hatchlings of Aphis gossipii Glover were parasitic, after which the cucumber seedlings were dried in the air. The resulting cucumber seedlings were placed in a thermostat of 25° C. After 3 days, the number of living insects was calculated and the mortality of insect was calculated using the calculation formula of the following Mathematical Expression 1. Insect mortality (%)=[1−(number of living insects)/(number of tested insects)]×100 [Mathematical Expression 1]

[3] = system: Nilaparvata lugens Stál (brown rice planthopper); assay: Insecticidal action test for Nilaparvata lugens Stál (immersed sprouting rice); details: 144 h, 500 ppm active ingredient, sprouting unhulled rice immersed, 3-age larvae, 25° C., after 6 days, read-out: insect mortality
Protocol: A wettable powder prepared based on Formulation Example 2 was diluted with water so that the concentration of active ingredient became 500 ppm. In the diluted formulation were immersed sprouting unhulled rice. The immersed rice was placed in a plastic cup of 60 ml. Into the plastic cup were released 10 3-age larvae of Nilaparvata lugens Stál (brown rice planthopper). The cup was covered with a cap and placed in a thermostat of 25° C. After 6 days, the number of living insects was counted and the mortality of insect was calculated using the calculation formula of Mathematical Expression 1.

[4] = system: Brown planthopper (Nilaparvata lugens); assay: Trial of systematic insecticidal activity against brown planthopper; details: 144 h, 1,800 ppm active ingredient, 250 μl poured to rice-plant foot of rice seedlings, 3-age larvae, 25° C., after 6 days, read-out: insect mortality
Protocol: A wettable powder prepared based on Formulation Example 2 was diluted with water so that the concentration of active ingredient became 1,800 ppm. 250 μl of the diluted formulation was poured to the rice-plant foot of 2.5-leaf age rice seedlings planted in a paper pot of 1.5 cm (length)×1.5 cm (width)×3 cm (height). Then, the paper pot was placed in a plastic cup of 700 ml. Into the plastic cup were released 5 3-age larvae of Nilaparvata lugens Stál (brown rice planthopper). The cup was covered with a cap and placed in a thermostat of 25° C. After 6 days, the number of living insects was counted and the mortality of insect was calculated using the calculation formula of Mathematical Expression 1.

SMILES | mortality at 500 ppm [1] [%] | mortality at 500 ppm [2] [%] | mortality at 500 ppm [3] [%] | mortality at 1800 ppm [4] [%]
CC(C)ON=C(Cl)C(=NOC(C)C)n1cncn1 [I-4, 1-(2-chloro-1,2-diisopropoxyiminoethyl)-1H-1,2,4-triazole] | ≥ 90 | ≥ 90 | ≥ 90 | ≥ 90
CC(C)ON=C(C#N)C(=NOC(C)C)n1cncn1 [I-50, 1-(2-cyano-1,2-diisopropoxyiminoethyl)-1H-1,2,4-triazole] | – | ≥ 90 | ≥ 90 | ≥ 90
CC(C)ON=C(C(N)=O)C(=NOC(C)C)n1cncn1 [I-73, 1-(2-carbamoyl-1,2-diisopropoxyiminoethyl)-1H-1,2,4-triazole] | – | – | ≥ 90 | –
CC(C)CON=C(N)C(=NOC(C)C)n1cncn1 [I-121, 1-(2-amino-2-isobutoxyimino-1-isopropoxyiminoethyl)-1H-1,2,4-triazole] | – | ≥ 90 | ≥ 90 | –
CC(C)ON=C(Br)C(=NOC(C)C)n1cncn1 [I-142, 1-(2-bromo-1,2-diisopropoxyiminoethyl)-1H-1,2,4-triazole] | – | ≥ 90 | ≥ 90 | ≥ 90
COC(=NOC(C)C)C(=NOC(C)C)n1cncn1 [I-165, 1-(1,2-diisopropoxyimino-2-methoxyethyl)-1H-1,2,4-triazole] | – | ≥ 90 | ≥ 90 | ≥ 90
CC(C)ON=C(C(=NOC(C)C)n1cncn1)n1cncn1 [I-212, 1,2-diisopropoxyimino-1,2-bis(1H-1,2,4-triazol-1-yl)ethane] | – | ≥ 90 | ≥ 90 | –
CC(C)ON=C(C(=NOC(C)C)n1cncn1)c1nnn[nH]1 [I-213, 1-[1,2-diisopropoxyimino-2-(1H-tetrazol-5-yl)ethyl]-1H-1,2,4-triazole] | – | – | ≥ 90 | –
CSC(=NOC(C)C)C(=NOC(C)C)n1cncn1 [I-228, 1-(2-methylthio-1,2-diisopropoxyiminoethyl)-1H-1,2,4-triazole] | – | ≥ 90 | ≥ 90 | ≥ 90
CC(=NOC(C)C)C(=NOC(C)C)n1ccnc1 [I-273, 1-(1,2-diisopropoxyiminopropyl)imidazole] | – | ≥ 90 | ≥ 90 | ≥ 90
CON=C(C(=NOC(C)C)C(=O)OC)n1cncn1 [II-221, 1-(2-isopropoxyimino-2-methoxycarbonyl-1-methoxyiminoethyl)-1H-1,2,4-triazole] | – | ≥ 90 | ≥ 90 | –
CCSC(=O)C(=NOC(C)C)C(=NOC)n1cncn1 [II-222, S-ethyl 2-isopropoxyimino-3-methoxyimino-3-(1H-1,2,4-triazol-1-yl)propanethioate] | – | ≥ 90 | ≥ 90 | –
CON=C(C(=NOC(C)C)C(N)=S)n1cncn1 [II-224, 1-(2-isopropoxyimino-2-thiocarbamoyl-1-methoxyiminoethyl)-1H-1,2,4-triazole] | – | ≥ 90 | ≥ 90 | ≥ 90
CCCCON=C(C#N)C(=NOCC)n1cncn1 [III-51, 1-(2-n-butoxyimino-2-cyano-1-ethoxyiminoethyl)-1H-1,2,4-triazole] | – | ≥ 90 | ≥ 90 | –
CCCCON=C(C(N)=O)C(=NOCC)n1cncn1 [III-74, 1-(2-n-butoxyimino-2-carbamoyl-1-ethoxyiminoethyl)-1H-1,2,4-triazole] | – | – | ≥ 90 | –
CCCON=C(C#N)C(=NOCCC)n1cncn1 [IV-90, 1-[2-cyano-1,2-bis(n-propoxyimino)ethyl]-1H-1,2,4-triazole] | – | ≥ 90 | ≥ 90 | –
CCCON=C(C(N)=O)C(=NOCCC)n1cncn1 [IV-101, 1-[2-carbamoyl-1,2-bis(n-propoxyimino)ethyl]-1H-1,2,4-triazole] | – | – | ≥ 90 | ≥ 90
N#CC(=NOCC(F)(F)C(F)(F)F)C(=NOCC(F)(F)F)n1cncn1 [IV-185, 1-[2-cyano-2-(2,2,3,3,3-pentafluoro-n-propoxyimino)-1-(2,2,2-trifluoroethoxyimino)ethyl]-1H-1,2,4-triazole] | – | – | ≥ 90 | –
CC(=NOC(C)C)C(=NOC(C)C)n1ccnc1S [V-10, 1-(1,2-diisopropoxyiminopropyl)-2-mercaptoimidazole] | – | ≥ 90 | ≥ 90 | –
